Measured values from ChEMBL document CHEMBL3351468, “Tritium-labelled isovaleryl-RYYRIK-NH2 as potential antagonist probe for ORL1 nociceptin receptor” (Bioorg Med Chem, 2014).

Legend:
Nociceptin receptor [1] = target: T1, Nociceptin receptor (Homo sapiens, UniProt P41146); experiment: Partial agonist activity at human ORL1 receptor expressed in African green monkey COS7 cells after 90 mins by topcount analysis; assay type: cell-based; conditions: COS-7
Nociceptin receptor [2] = target: T1, Nociceptin receptor; experiment: Displacement of [3H]]nociceptin from human ORL1 receptor expressed in African green monkey COS7 cells after 90 mins by topcount analysis; assay type: cell-based, COS-7
Nociceptin receptor [3] = target: T1, Nociceptin receptor; experiment: Binding affinity to human ORL1 receptor expressed in African green monkey COS7 cells assessed per mg protein after 90 mins by Scatchard plot analysis; assay type: cell-based, COS-7
Nociceptin receptor [4] = target: T1, Nociceptin receptor; experiment: Displacement of [3H]]nociceptin from human ORL1 receptor low affinity binding site expressed in African green monkey COS7 cells after 90 mins by topcount analysis
Nociceptin receptor [5] = target: T1, Nociceptin receptor; experiment: Displacement of [3H]isoVa-RYYRIK-NH2 from human ORL1 receptor expressed in African green monkey COS7 cells after 90 mins by topcount analysis; assay type: cell-based, COS-7
Nociceptin receptor [6] = target: T1, Nociceptin receptor; experiment: Displacement of [3H]]nociceptin from human ORL1 receptor high affinity binding site expressed in African green monkey COS7 cells after 90 mins by topcount analysis

T1 sequence (P41146 whole entry): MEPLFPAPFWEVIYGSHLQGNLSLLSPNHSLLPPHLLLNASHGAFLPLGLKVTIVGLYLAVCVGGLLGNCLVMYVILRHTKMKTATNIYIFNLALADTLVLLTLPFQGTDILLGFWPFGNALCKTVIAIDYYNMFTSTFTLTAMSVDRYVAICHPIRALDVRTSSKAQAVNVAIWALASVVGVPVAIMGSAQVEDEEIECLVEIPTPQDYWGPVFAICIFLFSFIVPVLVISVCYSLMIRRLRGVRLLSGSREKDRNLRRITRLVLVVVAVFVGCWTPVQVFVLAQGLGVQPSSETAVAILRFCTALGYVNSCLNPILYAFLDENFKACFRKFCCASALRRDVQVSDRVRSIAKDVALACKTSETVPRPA

| Structure (SMILES) | Activity (Nociceptin receptor [1]) [%] | IC50 (Nociceptin receptor [2]) [nM] | Kd (Nociceptin receptor [3]) [nM] | IC50 (Nociceptin receptor [4]) [nM] | IC50 (Nociceptin receptor [5]) [nM] | IC50 (Nociceptin receptor [6]) [nM] |
| --- | --- | --- | --- | --- | --- | --- |
| CC[C@H](C)[C@H](NC(=O)[C@H](CCCN=C(N)N)NC(=O)[C@H](Cc1ccc(O)cc1)NC(=O)[C@H](Cc1ccc(O)cc1)NC(=O)[C@H](CCCN=C(N)N)NC(C)=O)C(=O)N[C@@H](CCCCN)C(N)=O | 60 |  |  |  |  |  |
| CCC(=O)N[C@@H](CCCNC(=N)N)C(=O)N[C@@H](Cc1ccc(O)cc1)C(=O)N[C@@H](Cc1ccc(O)cc1)C(=O)N[C@@H](CCCNC(=N)N)C(=O)N[C@H](C(=O)N[C@@H](CCCCN)C(N)=O)[C@@H](C)CC | 46 | 1.39 |  |  |  |  |
| [3H]C(C(=O)N[C@@H](CCCNC(=N)N)C(=O)N[C@@H](Cc1ccc(O)cc1)C(=O)N[C@@H](Cc1ccc(O)cc1)C(=O)N[C@@H](CCCNC(=N)N)C(=O)N[C@H](C(=O)N[C@@H](CCCCN)C(N)=O)[C@@H](C)CC)C([3H])(C)C (stereo partly specified) |  |  | 1.21 |  |  |  |
| CC[C@H](C)[C@H](NC(=O)[C@H](CCCNC(=N)N)NC(=O)[C@H](Cc1ccc(O)cc1)NC(=O)[C@H](Cc1ccc(O)cc1)NC(=O)[C@H](CCCNC(=N)N)NC(=O)CC(C)C)C(=O)N[C@@H](CCCCN)C(N)=O | 0 |  |  | 8.51 | 2.15 | 0.033 |
| CC[C@H](C)[C@H](NC(=O)[C@H](CCCNC(=N)N)NC(=O)[C@H](Cc1ccc(O)cc1)NC(=O)[C@H](Cc1ccc(O)cc1)NC(=O)[C@H](CCCNC(=N)N)NC(=O)C(C)C)C(=O)N[C@@H](CCCCN)C(N)=O | 14 |  |  | 1.67 |  | 0.059 |
